The text below walks through data of patent publication US6307056A, “4-aryloxindoles” (Hoffman-La Roche Inc., priority 1999, dated 2001).

As usually defined, the IC50 is the concentration at which inhibition is half-maximal.

Counter-ions that a name gives are not always drawn.

The first test concerns IL-6. As to the kind of experiment: U937 Cell-Based Assay, IL-6 ELISA after LPS stimulation. To be noted: Homo sapiens, U-937, PMA-differentiated U937 cells, 1 hour preincubation, 24 hours, supernatant ELISA, read-out: IC50 (pM) in U837 Cells IL6. Here is the method: (§1) U937 Cell-Based Assay The U937 cells, a human monocyte/macrophage cell line, was obtained from the ATTC and grown in the recommended medium. These cells when stimulated with lipopolysaccharide (LPS) release TNF, another inflammatory mediator implicated in the JNK pathway ([…] et al., supra) and IL-6. In this assay the ability of a test compound to block TNF expression is evaluated. The U937 cells were suspension cells which when stimulated with phorbol myristate acetate (PMA) (Sigma, St. Louis, Mo.) became adherent. After PMA stimulation the cells were washed in cell culture medium and plated at 1×10^5 cells/well in 96 well plates. The following day the test compounds and dexamethasone control (Sigma, St. Louis, Mo.) were added to the cells for 1 hour of preincubation. Then the cells were stimulated with LPS (Sigma, St. Louis, Mo.). After an additional 24 hours of incubation the supernatants were removed and assayed for TNF-α and IL-6 by ELISA. The IL-6 ELISA was run as described previously for the MG63 assay. […] The intensity of the color (measured at 450 nm) is proportional to the amount of TNF-α or IL-6 produced by the U937 cells upon exposure to LPS and the test compounds. […] IC50 values for each test compound were determined from the linear regression of a plot of the logarithm of the concentration of compound versus amount of TNF-α or IL-6 secreted. […]
Turning to `COC(=O)c1ccc(-c2c(NC(=O)Cc3cccs3)ccc3c2/C(=C/c2[nH]ccc2OC)C(=O)N3)cc1` [WW, (Z)-4-[2,3-Dihydro-3-[(3-methoxy-1H-pyrrol-2-yl)methylene]-2-oxo-5-[(2-thienylacetyl)amino]-1H-indol-4-yl]-benzoic Acid Methyl Ester], the IC50 was 7.8e+06 pM.

Regarding `Nc1cccc(-c2cccc3c2/C(=C/c2ccc[nH]2)C(=O)N3)c1` [D, (Z)-4-(3-Aminophenyl)-1,3-dihydro-3-[(1H-pyrrol-2-yl)methylene]-2H-indol-2-one hydrochloride salt], the IC50 amounted to 6.33e+06 pM.

The subject of another test is TNF-α. Kind of test: U937 Cell-Based Assay, TNF-α ELISA after LPS stimulation. The conditions noted are these: Homo sapiens, U-937, read-out: IC50 in U837 Cells TNF, PMA-differentiated U937 cells, 1 hour preincubation, 24 hours, supernatant ELISA. Here is the method: as §1
Background: In an ELISA, binding on a coated surface is turned into a signal by an enzyme label.
In the case of `COC(=O)c1ccc(-c2c(NC(=O)Cc3cccs3)ccc3c2/C(=C/c2[nH]ccc2OC)C(=O)N3)cc1` [WW, (Z)-4-[2,3-Dihydro-3-[(3-methoxy-1H-pyrrol-2-yl)methylene]-2-oxo-5-[(2-thienylacetyl)amino]-1H-indol-4-yl]-benzoic Acid Methyl Ester], the IC50 stood at 1.35e+06 pM.

Consider `Nc1cccc(-c2cccc3c2/C(=C/c2ccc[nH]2)C(=O)N3)c1` [D, (Z)-4-(3-Aminophenyl)-1,3-dihydro-3-[(1H-pyrrol-2-yl)methylene]-2H-indol-2-one hydrochloride salt], for which the IC50 turned out to be 1.17e+06 pM.

In another test the target is rat SAPK (isoform b) (Rattus norvegicus, UniProt P49187). As to the kind of experiment: SAPK FlashPlate Assay (c-Jun phosphorylation). The class given is biochemical. To be noted: purified rat SAPK activated by MEKK-1/MKK4, GST-c-Jun substrate, 33P-ATP, 30 minutes at 37° C. Here is the method: "IC50 " refers to the concentration of a particular 4-aryloxindole or 4-heteroaryloxidole required to inhibit 50% of the SAPK protein kinase catalytic activity. IC50 can be measured, inter alia, using the assay described herein in Example 66.
Chain of rat SAPK (isoform b) (P49187 whole entry, canonical isoform): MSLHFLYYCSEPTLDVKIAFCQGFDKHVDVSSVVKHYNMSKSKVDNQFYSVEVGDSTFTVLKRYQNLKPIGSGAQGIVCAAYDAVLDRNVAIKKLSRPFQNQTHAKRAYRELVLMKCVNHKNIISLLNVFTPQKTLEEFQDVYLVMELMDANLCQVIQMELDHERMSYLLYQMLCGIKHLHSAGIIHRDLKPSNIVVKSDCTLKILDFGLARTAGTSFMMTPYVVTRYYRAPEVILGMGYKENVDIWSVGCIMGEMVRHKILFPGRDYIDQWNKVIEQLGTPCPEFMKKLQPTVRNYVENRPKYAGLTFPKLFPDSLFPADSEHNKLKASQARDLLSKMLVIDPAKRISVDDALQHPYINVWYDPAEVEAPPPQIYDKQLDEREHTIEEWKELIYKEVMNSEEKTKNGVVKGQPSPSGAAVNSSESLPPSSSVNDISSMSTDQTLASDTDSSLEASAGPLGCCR
Human JNK is highly homologous to rat SAPK. To measure the inhibitory activity of test compounds, the compounds were tested in the rat SAPK assay.
For the SAPK assay, purified GST-c-Jun (a chimeric protein containing c-Jun, a natural substrate of JNK) was coated on 96 well FlashPlates (New England Nuclear, Boston, Mass.). Purified rat SAPK (isoform b, Kyriakis et al. supra) was preincubated with preparations containing MEKK-1 and MKK4 for 30 minutes at 37° C. in assay buffer containing 25 mM HEPES, pH 7.5, 150 mM NaCl, 20 mM MgCl2, 2 mM DTT, 0.001% Tween 20, 1 mM ATP freshly added. In the preincubation step, MEKK-1 phosphorylates and activates MKK4, which in turn phosphorylates and activates SAPK. The activated SAPK was then added to the c-Jun coated FlashPlates along with ^33 P-ATP ([…] per reaction) and test compounds. The plates were incubated for 30 minutes at 37° C., then washed with PBS, 0.01% Tween 20, and counted in the Topcount scintillation counter (Packard Instrument Co., Downers Grove, Ill.). Dilutions of compounds were tested in duplicate in each assay. The percent inhibition of c-Jun phosphorylation (a measure of inhibition of SAPK activity) was determined by the following formula: [formula]
where "test compound" refers to the average counts per minute of the test duplicates, "nonspecific" refers to the average counts per minute when no SAPK was added, and "total" refers to the average counts per minute when no compound was added.
`COc1cc[nH]c1/C=C1\C(=O)Nc2cccc(-c3cccc(N)c3)c21` [EE, (Z)-4-(3-Aminophenyl)-1,3-dihydro-3-[(3-methoxy-1H-pyrrol-2-yl)methylene]-2H-indol-2-one] gave an IC50 of under 0.15 µM.

With `COc1cc[nH]c1/C=C1\C(=O)Nc2ccc(NC(=O)Cc3cccs3)c(-c3ccc(O)cc3)c21` [OO, (Z)-N-[2,3-Dihydro-4-(4-hydroxyphenyl)-3-[(3-methoxy-1H-pyrrol-2-yl)methylene]-2-oxo-1H-indol-5-yl]-2-thiopheneacetamide], the IC50 is under 0.15 µM.

With `COc1cc[nH]c1/C=C1\C(=O)Nc2ccc(NC(=O)Cc3cccs3)c(-c3ccc(C(=O)O)cc3)c21` [XX, (Z)-4-[2,3-Dihydro-3-[(3-methoxy-1H-pyrrol-2-yl)methylene]-2-oxo-5-[(2-thienylacetyl)amino]-1H-indol-4-yl]-benzoic acid], the IC50 is under 0.15 µM.

With `COC(=O)c1ccc(-c2c([N+](=O)[O-])ccc3c2/C(=C/c2[nH]ccc2OC)C(=O)N3)cc1` [RR, (Z)-4-[2,3-Dihydro-3-[(3-methoxy-1H-pyrrol-2-yl)methylene]-5-nitro-2oxo-1H-indol-4-yl]-benzoic acid methyl ester], the IC50 is under 0.15 µM.

On to `COc1cc[nH]c1/C=C1\C(=O)Nc2ccc(NC(=O)Cc3cccs3)c(-c3ccc4cc[nH]c4c3)c21` [VV, (Z)-N-[2,3-Dihydro-4-(6-indolyl)-3-[(3-methoxy-1H-pyrrol-2-yl)methylene]-2-oxo-1H-indol-5-yl]-2-thiopheneacetamide], for which the IC50 was under 0.15 µM.

With `COc1cc[nH]c1/C=C1\C(=O)Nc2ccc([N+](=O)[O-])c(-c3ccccc3)c21` [KK, (Z)-1,3-Dihydro-3-[(3-methoxy-1H-pyrrol-2-yl)methylene]-5-nitro-4-phenyl-2H-indol-2-one], the IC50 was under 0.15 µM.

The molecule `Nc1cccc(-c2cccc3c2/C(=C/c2ccc[nH]2)C(=O)N3)c1` [Compound C, (Z)-4-(3-Aminophenyl)-1,3-dihydro-3-[(1H-pyrrol-2-yl)methylene]-2H-indol-2-one] yielded an IC50 of under 0.15 µM.

`COc1cc[nH]c1/C=C1\C(=O)Nc2ccc(N)c(-c3ccc(O)cc3)c21` [NN, (Z)-5-Amino-1,3-dihydro-4-(4-hydroxyphenyl)-3-[(3-methoxy-1H-pyrrol-2-yl)methylene]-2H-indol-2-one] gave an IC50 of under 0.15 µM.

In turn, `COC(=O)c1ccc(-c2c(NC(=O)Cc3cccs3)ccc3c2/C(=C/c2[nH]ccc2OC)C(=O)N3)cc1` [WW, (Z)-4-[2,3-Dihydro-3-[(3-methoxy-1H-pyrrol-2-yl)methylene]-2-oxo-5-[(2-thienylacetyl)amino]-1H-indol-4-yl]-benzoic Acid Methyl Ester] displayed an IC50 of under 0.15 µM.

`COc1cc[nH]c1/C=C1\C(=O)Nc2ccc(NC(=O)Cc3cccs3)c(-c3ccccc3)c21` [LL, (Z)-N-[2,3-Dihydro-3-[(3-methoxy-1H-pyrrol-2-yl)methylene]-2-oxo-4-phenyl-1H-indol-5-yl]-2-thiopheneacetamide]: the IC50 is under 0.15 µM.

In turn, `COc1cc[nH]c1/C=C1\C(=O)Nc2ccc(NC(=O)Cc3cccs3)c(-c3ccc4[nH]ccc4c3)c21` [QQ, (Z)-N-[2,3-dihydro-4-(5-indolyl)-3-[(3-methoxy-1H-pyrrol-2-yl)methylene]-2-oxo-1H-indol-5-yl]-2-thiopheneacetamide] had an IC50 of under 0.15 µM.

`COc1cc[nH]c1/C=C1\C(=O)Nc2cccc(-c3cccc4[nH]ccc34)c21` [TT, (Z)-1,3-Dihydro-4-(4-indolyl)-3-[(3-methoxy-1H-pyrrol-2-yl)methylene]-2H-indol-2-one] returned an IC50 of under 0.15 µM.

In turn, `COC(=O)c1ccc(-c2c(N)ccc3c2/C(=C/c2[nH]ccc2OC)C(=O)N3)cc1` [SS, (Z)-4-[5-Amino-2,3-dihydro-3-[(3-methoxy-1H-pyrrol-2-yl)methylene]-2-oxo-1H-indol-4-yl]-benzoic acid methyl ester] showed an IC50 of under 0.15 µM.

In turn, `COc1cc[nH]c1/C=C1\C(=O)Nc2ccc(N)c(-c3ccccc3)c21` [PP, (Z)-5-Amino-1,3-dihydro-3-[(3-methoxy-1H-pyrrol-2-yl)methylene]-4-phenyl-2H-indol-2-one] gave an IC50 of under 0.15 µM.

`COc1cc[nH]c1/C=C1\C(=O)Nc2ccc([N+](=O)[O-])c(-c3ccc(O)cc3)c21` [JJ, (Z)-1,3-Dihydro-4-(4-hydroxyphenyl)-3-[(3-methoxy-1H-pyrrol-2-yl)methylene]-5-nitro-2H-indol-2-one] registered an IC50 of under 0.15 µM.

For the molecule `COc1cc[nH]c1/C=C1\C(=O)Nc2cccc(-c3ccccc3)c21` [GG, (Z)-1,3-Dihydro-4-phenyl-3-[(3-methoxy-1H-pyrrol-2-yl)methylene]-2H-indol-2-one], the IC50 is under 0.15 µM.

For `COc1cc[nH]c1/C=C1\C(=O)Nc2cccc(-c3ccc4[nH]ccc4c3)c21` [MM, (Z)-1,3-Dihydro-4-(5-indolyl)-3-[(3-methoxy-1H-pyrrol-2-yl)methylene]-2H-indol-2-one], the IC50 was under 0.15 µM.

In the case of `COc1cc[nH]c1/C=C1\C(=O)Nc2cccc(-c3ccc4cc[nH]c4c3)c21` [UU, (Z)-1,3-Dihydro-4-(6-indolyl)-3-[(3-methoxy-1H-pyrrol-2-yl)methylone]-2H-indol-2-one], the IC50 was under 0.15 µM.
